For one assay, the target named is PIM-3 kinase (Homo sapiens, UniProt Q86V86). As to the kind of experiment: Measurement of PIM-3 kinase inhibitory activity (fluorescent substrate peptide, capillary electrophoresis). Format: biochemical. The following applies: 30 μM ATP, 2 hours at room temperature. The method, then: 1.5 μM of fluorescent substrate peptide (FAM-AKRRRLSSLRA-COOH), 30 μM of ATP, and 0.0833 ng/μL of PIM-3 kinase were incubated with a compound for 2 hours at room temperature, and the Pim-3 kinase activity was measured. The reaction was quantified by separating the substrate and phosphorylation reaction product by capillary electrophoresis (using a Perkin-Elmer EZ reader II) based on the difference in their charges. The results are shown below in Tables 1 and 2.

The test system of assay [1] is PCI35. In words: Growth inhibitory activity on human pancreatic cancer cell lines (Example 2, WST-8). The following applies: cultured for 96 hours, 2000 cells/well. Format: cell-based. As to the method: (§1) Two thousand cells of human pancreatic cancer cells lines (L3.6pl, MiaPaca-2, PANC-1, PCI35, PCI66) were seeded in a medium volume of 100 μL in each well of a 96-well microtiter plate. The medium was removed after 18 hours, and 100 μL/well of medium containing the test compound was added. Culture was continued for 72 or 96 hours. The medium containing the test compound was removed, and 100 μL/well of medium containing 10% WST-8 (Dojindo Laboratories Cell Counting kit-8) was added. After culturing for one hour, the OD 450 nm absorbance was measured, and the cell growth inhibitory activity was calculated. Furthermore, RPMI-1640 medium (Sigma) was used as the medium with 10% fetal calf serum (Invitrogen), 50 U/mL penicillin G (Sigma), and 50 μg/mL streptomycin (Sigma) added. The cell lines were cultured at 37° C. in a carbon dioxide incubator with a carbon dioxide concentration of 5%.
(§2) Tables 3 and 4 show the results of compound evaluation when cultured for 96 hours.

In assay [2] the test system is PCI66. The assay is described as above. Format: cell-based. The following applies: cultured for 96 hours, 2000 cells/well. As to the method: as §1, §2
For assay [3], the system named is MiaPaca-2. Described as above. Format: cell-based. The note with it: Homo sapiens, MIA PaCa-2; cultured for 96 hours, 2000 cells/well. As to the method: as §1, §2
For another assay, the system named is PCI66 cells. As to the kind of experiment: Animal study: subcutaneous PCI66 tumor in nude mice. Format: in vivo, BALB/c nu/nu mice. The note with it: 30 mg/kg intraperitoneal, once a day for five days then two days off, three cycles, from day 14 after tumor injection. The method, then: PCI66 cells, which are human pancreatic cancer cells, were suspended in Hanks balanced salt solution in a concentration of 2×10^7 cells/mL, and 100 μL of the cell suspension was injected subcutaneously to the backs of BALB/c nu/nu mice (SLC, Shizuoka, Japan). Drug administration was begun 14 days after tumor injection. The drug was administered once a day for five days intraperitoneally, then withheld for two days. This cycle was repeated three times. The tumor volume was calculated by the following formula.
Tumor volume(cm^3)=[maximum diameter](cm)×[minimum diameter]^2(cm)/2

Another assay has as its system L3.6pl. As to the kind of experiment: Growth inhibitory activity on human pancreatic cancer cell lines (Example 4, WST-8). Format: cell-based. The following applies: Example 4: 72 hours, 3000 cells/well. The method, then:
(§3) Three thousand cells of human pancreatic cancer cell lines (L3.6pl, MiaPaca-2, PANC-1, PCI35, and PCI66) were seeded in a medium volume of 90 μL in each well of a 96-well microtiter plate. After 24 hours, 10 μL/well of medium containing the test compound was added. Culture was continued for 72 hours, and 10 μL/well of WST-8 (Dojindo Laboratories Cell Counting kit-8) was added. After culturing for 2 hours, the OD 450 nm absorbance was measured, and the cell growth inhibitory effect was calculated. The cell lines were cultured in a carbon dioxide incubator with a carbon dioxide concentration of 5%.

The subject of assay [4] is PCI35. Described as above. Format: cell-based. The note with it: Example 4: 72 hours, 3000 cells/well. The method, then: as §3
The test system of assay [5] is PCI66. The description is as above. Format: cell-based. The following applies: Example 4: 72 hours, 3000 cells/well. The method, then:
as §3

Assay [6] concerns MiaPaca-2. The assay is described as above. Format: cell-based. The note with it: MIA PaCa-2, Example 4: 72 hours, 3000 cells/well. The method, then:
as §3

The next assay relates to PANC-1. Described as above. Format: cell-based. The following applies: Example 4: 72 hours, 3000 cells/well. The method, then: as §3

Turning to `COc1ccc2c(c1C(C)N1CCNCC1)O/C(=C\c1n[nH]c3ncccc13)C2=O` (centres unmarked) [Compound 6, (Z)-2-[(1H-pyrazolo[3,4-b]pyridin-3-yl)methylene]-6-methoxy-7-[1-(piperazin-1-yl)ethyl]benzofuran-3(2H)-one], the IC50 is 0.0076 µM at PIM-3 kinase, 1.8 µM in the assay with PCI35 [1], 1.8 µM in the assay with PCI66 [2] and 1.6 µM in the assay with MiaPaca-2 [3]. Besides, the tumor volume entry in the assay with PCI66 cells is reported as “suppress an increase in tumor volume”.
As to `COc1ccc2c(c1CN1CC3CCC(C1)N3)O/C(=C\c1n[nH]c3ncccc13)C2=O` [Compound 25, (Z)-2-[(1H-pyrazolo[3,4-b]pyridin-3-yl)methylene]-7-[(3,8-diazabicyclo[3.2.1]octan-3-yl)methyl]-6-methoxybenzofuran-3(2H)-one], the IC50 against PIM-3 kinase was found to be 0.00029 µM; in the assay on L3.6pl it was 2.9 µM; in the assay with PCI35 [4] it was 2.8 µM; with PCI66 [5], 3.6 µM; in the assay on MiaPaca-2 [6], 1.8 µM; with PANC-1, 9.7 µM.
As to `O=C1/C(=C/c2n[nH]c3ncccc23)Oc2c1ccc(F)c2CC1CCNCC1` [Compound 29, (Z)-2-[(1H-pyrazolo[3,4-b]pyridin-3-yl)methylene]-6-fluoro-7-(piperidin-4-ylmethyl)benzofuran-3(2H)-one], the IC50 against PIM-3 kinase was 0.0045 µM; with L3.6pl, 3.8 µM; in the assay on PCI35 [4] it was 6.8 µM; in the assay on PCI66 [5], 3.9 µM; in the assay on MiaPaca-2 [6] it was 3.5 µM; in the assay on PANC-1, 3.3 µM.
With `COc1ccc2c(c1CN1CCC[C@H](N)C1)O/C(=C\c1n[nH]c3ncccc13)C2=O` [Compound 32, (S,Z)-2-[(1H-pyrazolo[3,4-b]pyridin-3-yl)methylene]-7-[(3-aminopiperidin-1-yl)methyl]-6-methoxybenzofuran-3(2H)-one], the IC50 at PIM-3 kinase turned out to be 0.00051 µM; in the assay on L3.6pl it was 3.3 µM; in the assay with PCI35 [4], 5.3 µM; in the assay with PCI66 [5], 4.2 µM; in the assay with MiaPaca-2 [6], 2.9 µM; in the assay on PANC-1, 8.1 µM.

These data come from US20170145005A1, “KINASE INHIBITOR” (THE UNIVERSITY OF TOKYO, priority 2014, published 2017).
